This is an account of results in patent US10940139B2, “Compounds that interact with the Ras superfamily for the treatment of cancers, inflammatory diseases, rasopathies, and fibrotic disease” (Shy Therapeutics LLC, priority 2017, dated 2021).

Sequence of KRas G12D/Q61H double mutant (P01116-2 other isoform, or with tags, fused parts or gaps G12D/Q61H): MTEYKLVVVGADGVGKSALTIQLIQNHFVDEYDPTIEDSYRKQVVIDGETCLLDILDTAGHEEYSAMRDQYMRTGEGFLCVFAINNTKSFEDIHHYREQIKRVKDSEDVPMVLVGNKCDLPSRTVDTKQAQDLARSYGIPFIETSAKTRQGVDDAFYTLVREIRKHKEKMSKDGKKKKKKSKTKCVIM

The first assay concerns the target KRas G12D/Q61H double mutant (Homo sapiens (Human), UniProt P01116, G12D/Q61H). As to the kind of experiment: Ras GTP binding domain inhibition assay (labeled GTP). Particulars: 20 μM compound; KRas G12D/Q61H double mutant; read-out: % Inhibition at 20 μM of K-Ras mutant and wild-type protein, KRas G12D Q61H. The method, boiled down: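 Ni-plate capture of His-KRas (3-10 μg/ml, o/n, 4° C); Tris pH 7.5/MgCl2/DTT buffer, 1% DMSO. Cpd 20 μM or titration, 3 h RT. Cy3/Cy5-GTP 45 min RT, wash, fluorescence of bound GTP.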
With `CC(C)(COc1ncccc1C(F)(F)F)Nc1nccc(C(F)(F)F)n1`, the inhibition at 20 µM was 25 to 50%.

Regarding `CC(C)=CC1C(C(=O)NCc2ccc(OCC(F)(F)F)nc2)C1(C)C` (stereo not drawn), the inhibition at 20 µM fell in the range of 25 to 50%.

Take `Cc1occc1-c1nnc(SCC2CCN(C(=O)OCc3ccccc3)CC2)o1`: the inhibition at 20 µM lay in the range of 25 to 50%.

For `Cc1ccc(S(=O)(=O)N2CCN(C(=O)CNC(=O)c3ncccc3O)CC2)s1`, the inhibition at 20 µM fell in the range of 25 to 50%.

In the case of `Cc1ccc(OCc2ccc(C(=O)N(CCC#N)CC3CCC3)o2)c(C)c1`, the inhibition at 20 µM is 51 to 75%.

On to `CC1CCCN(S(=O)(=O)c2ccc(NCc3ccc(C(=O)N(C)C(C)C)cc3)c([N+](=O)[O-])c2)C1` (stereo not drawn), for which the inhibition at 20 µM fell in the range of 25 to 50%.

As for `O=C(C1CCN(c2ccccc2[N+](=O)[O-])CC1)N1CCCC1C1CCCCC1` (stereo not drawn), the inhibition at 20 µM was in the range of 1 to 25%.

For `CC(=O)c1c(F)cccc1N1CCN(c2cccc(C(F)(F)F)c2)CC1`, the inhibition at 20 µM fell in the range of 25 to 50%.

As to `FC(F)Oc1ccc(N2CCOC(c3ccc(Br)cc3)C2)nc1` (stereo not drawn), the inhibition at 20 µM is 25 to 50%.

`COc1ccc(CN(C)C(=O)c2cc(Br)c(Br)s2)c(OC)c1`: the inhibition at 20 µM was 25 to 50%.

As to `COCCNc1ccc([N+](=O)[O-])cc1C(=O)OCCOc1ccccc1`, the inhibition at 20 µM is 25 to 50%.

Consider `Cc1n[nH]c(C2CN(C(=O)c3cnc(C)s3)CCO2)n1` (stereo not drawn), for which the inhibition at 20 µM was in the range of 1 to 25%.

As to `Cc1cccc(-n2ccnc2SCCCc2nc(-c3cccs3)no2)c1`, the inhibition at 20 µM was 25 to 50%.

In the case of `CCN(CC(=O)Nc1ccccc1OC)Cc1coc(-c2ccc(C)cc2C)n1`, the inhibition at 20 µM was in the range of 25 to 50%.

For `Cc1ccc(C(=O)Oc2cccc(C3CN(C(=O)c4ccc(C)s4)CCO3)c2)s1` (stereo not drawn), the inhibition at 20 µM lay within 1 to 25%.

Turning to `FC(F)n1ccnc1CCNCc1csc(COc2ccccc2)n1`, the inhibition at 20 µM fell in the range of 51 to 75%.

Consider `Cc1ccc(OS(=O)(=O)NCCC(c2ccccc2)c2ccccc2)cc1`, for which the inhibition at 20 µM is 1 to 25%.

As to `COc1ccc(C(C)=O)cc1CC(C(=O)c1ccc(C2CCCCC2)cc1)N(C)C` (stereo not drawn), the inhibition at 20 µM fell in the range of 25 to 50%.

In the case of `CN(C)S(=O)(=O)c1ccc(CN2CCCCCC2/C=C/c2ccccc2)o1` (stereo not drawn), the inhibition at 20 µM lay in the range of 25 to 50%.

Regarding `CC(C)CC(NC(=O)OC(C)(C)C)c1noc(Cc2c[nH]c3ccccc23)n1` (stereo not drawn), the inhibition at 20 µM fell in the range of 1 to 25%.

As to `CCCn1c(-c2cccc(C)c2)nnc1S(=O)(=O)Cc1csc(-c2cccc(OC)c2)n1`, the inhibition at 20 µM is 51 to 75%.

`C#CCN(Cc1ccc(C)cc1)c1ccc(C#N)cc1[N+](=O)[O-]`: the inhibition at 20 µM is 1 to 25%.

`O=C(COCC(F)(F)F)Nc1nnc(-c2ccccn2)[nH]1`: the inhibition at 20 µM is 25 to 50%.

The same assay, now with this note: 20 μM compound; read-out: % Inhibition at 20 μM KRas G12D Q61H.
On to `Cc1nc(C2CN(Cc3ccccc3F)CCO2)no1` (stereo not drawn), for which the inhibition at 20 µM was in the range of 25 to 50%.

Take `CCN(CCNC(=O)c1cc(-c2cccnc2)on1)c1cccc(C)c1`: the inhibition at 20 µM is 25 to 50%.

For `N#Cc1ccc(N2CCCC2c2ccco2)cc1C(F)(F)F` (stereo not drawn), the inhibition at 20 µM lay within 1 to 25%.

For the compound `O=C(c1cc(-c2ccccc2)nn1-c1ccccc1)N(Cc1nnc(-c2ccccc2Cl)o1)C1CC1`, the inhibition at 20 µM was in the range of 25 to 50%.

Regarding `COc1ccc(OC)c(-c2csc(C3CC3)n2)c1`, the inhibition at 20 µM lay in the range of 25 to 50%.

Regarding `Cc1noc(CN(Cc2ccc(C#N)cc2)Cc2cccc(F)c2)n1`, the inhibition at 20 µM is 1 to 25%.

Consider `COc1c(C)cnc(CN2CCCCC2c2ncc[nH]2)c1C` (stereo not drawn), for which the inhibition at 20 µM fell in the range of 25 to 50%.

For `CCC1COCCN1c1nc(-c2ccccn2)nc2scc(-c3ccccc3)c12` (stereo not drawn), the inhibition at 20 µM was 25 to 50%.

Regarding `O=C(Nc1nnc(-c2ccccn2)[nH]1)c1ccncc1`, the inhibition at 20 µM was 25 to 50%.

With `CN(Cc1ccc(C(F)(F)F)cc1)Cc1cc([N+](=O)[O-])cc2c1OCOC2`, the inhibition at 20 µM was in the range of 1 to 25%.

For `Cc1cccc(C)c1Oc1ccccc1NCc1nc(C2CC2)no1`, the inhibition at 20 µM was 25 to 50%.

As to `c1ccc(-c2nc(N3CCOCC3)c3ccsc3n2)nc1` [drawing 2702], the inhibition at 20 µM is 51 to 75%.

For `CS(=O)(=O)Nc1nc(-c2ccccn2)nc2scc(-c3ccccc3)c12`, the inhibition at 20 µM was in the range of 1 to 25%.

As for `c1ccc(-c2csc3nc(-c4ccccn4)nc(NCc4ccccn4)c23)cc1`, the inhibition at 20 µM is 25 to 50%.

As to `Cc1cc(NCCNC(=O)Cc2ccccc2)nc(-c2ccccn2)n1`, the inhibition at 20 µM was 25 to 50%.

For the compound `O=C(c1cc(-c2ccccc2)nc2ccccc12)N1N=CCC1(O)C(F)(F)F` (stereo not drawn), the inhibition at 20 µM fell in the range of 25 to 50%.

In the case of `COc1cc(COCC(=O)Nc2ccnc(-c3ccccn3)n2)ccn1` [drawing 2813], the inhibition at 20 µM fell in the range of 25 to 50%.

With `O=C(c1csc2c(O)nc(-c3ccccn3)nc12)N1CCN(c2ccc(O)cc2)CC1`, the inhibition at 20 µM is 25 to 50%.

For `COc1ccc(CN2CCN(C(=O)c3csc4c(O)nc(-c5ccccn5)nc34)CC2)cc1OC`, the inhibition at 20 µM was 25 to 50%.

Consider `COc1cc(F)ccc1N1CCN(C(=O)c2csc3c(O)nc(-c4ccccn4)nc23)CC1`, for which the inhibition at 20 µM lay within 25 to 50%.

Consider `COC(=O)c1ccc(C(=O)NCC(c2ccccc2)N2CCOCC2)nc1` (stereo not drawn), for which the inhibition at 20 µM lay in the range of 1 to 25%.

As to `O=C(Nc1nnc(-c2ccccn2)[nH]1)C1CCS(=O)(=O)C1` (stereo not drawn), the inhibition at 20 µM lay in the range of 25 to 50%.

Take `COc1ccc(CC(=O)Nc2nc(-c3ccccn3)cs2)cc1`: the inhibition at 20 µM fell in the range of 25 to 50%.

With `N#Cc1csc2nc(-c3ccccn3)nc(N3CCOCC3)c12` [drawing 2819], the inhibition at 20 µM was 25 to 50%.

Regarding `O=C(CCN1C(=O)NC2(CCCCC2)C1=O)Nc1nnc(-c2ccccn2)[nH]1`, the inhibition at 20 µM was 1 to 25%.

Consider `O=C(c1csc2c(O)nc(-c3ccccn3)nc12)N1CCN(c2ccccc2Cl)CC1` [drawing 2718], for which the inhibition at 20 µM lay within 51 to 75%.

For the compound `COc1cc(CC(=O)Nc2nnc(-c3ccccn3)[nH]2)cc(OC)c1OC`, the inhibition at 20 µM fell in the range of 25 to 50%.

`CC(c1nc2ccccc2n1CCOc1ccccc1)N1CCCCC1` (stereo not drawn): the inhibition at 20 µM lay in the range of 1 to 25%.

As for `CN1CCC(C(=O)Nc2nnc(-c3ccccn3)[nH]2)CC1=O` (stereo not drawn), the inhibition at 20 µM fell in the range of 25 to 50%.

Regarding `c1ccc(Oc2ccccc2NCc2nc(C3CC3)no2)cc1`, the inhibition at 20 µM was in the range of 25 to 50%.

On to `CC(C)N(Cc1ccccn1)Cc1nc2ccccc2n1C(F)F`, for which the inhibition at 20 µM lay in the range of 1 to 25%.

For the compound `Oc1nc(-c2ccccn2)nc2c(C3CCNCC3)csc12` [drawing 2711], the inhibition at 20 µM fell in the range of 51 to 75%.

On to `CCN(CC)S(=O)(=O)c1ccc(N2CCCC2)c(C(=O)NCCCn2cnc3ccccc32)c1`, for which the inhibition at 20 µM lay within 25 to 50%.

As for `Cc1cc(C2CCCN2c2nccc(C(F)(F)F)n2)no1` (stereo not drawn), the inhibition at 20 µM is 25 to 50%.

Take `FC(F)(F)c1ccc(N2CCCC2)c(NCc2nc(-c3ccco3)no2)c1`: the inhibition at 20 µM was in the range of 25 to 50%.

Turning to `CCOC(=O)c1sc(N(C2CC2)S(=O)(=O)c2cc(F)ccc2C)nc1C`, the inhibition at 20 µM is 25 to 50%.

As to `COc1ccccc1-c1nnc(CNc2ccc(Cl)cc2Cl)o1`, the inhibition at 20 µM was in the range of 1 to 25%.

In the case of `O=C(c1csc2c(O)nc(-c3ccccn3)nc12)N1CCc2ccccc2CC1` [drawing 2690], the inhibition at 20 µM was in the range of 25 to 50%.

As for `OC(CNc1nc(-c2ccccn2)nc2c1CCC2)COCC1CC1` (stereo not drawn), the inhibition at 20 µM fell in the range of 25 to 50%.

On to `N#CC1CN(c2nccc(C(F)(F)F)n2)CCN1Cc1ccccc1` (stereo not drawn), for which the inhibition at 20 µM is 1 to 25%.

Take `COc1cc2c(cc1OC)CCN(C(=O)c1csc3c(O)nc(-c4ccccn4)nc13)CC2` [drawing 2691]: the inhibition at 20 µM lay in the range of 51 to 75%.

`Cc1c(C(=O)N(c2ccccc2)C(C)C)cnn1-c1ccccn1`: the inhibition at 20 µM is 1 to 25%.

Turning to `CC(C)Cc1cc(C(=O)Nc2cc(-c3ccncc3)nn2C)[nH]n1`, the inhibition at 20 µM lay in the range of 1 to 25%.

For `Cc1cccc(OCCn2c(CN3CCCCC3)nc3ccccc32)c1C`, the inhibition at 20 µM lay within 1 to 25%.

The assay is the same for the next values; noted with them: 20 μM; read-out: KRas G12D Q61H % Inh.
`CCc1cc(NNC(=O)c2ccc(C#N)cc2)nc(-c2ccccn2)n1` [drawing 2605]: the inhibition at 20 µM lay within 51 to 75%.

As to `COc1ccc(CCC(=O)Nc2nnc(-c3ccccn3)[nH]2)cc1F` [drawing 2454], the inhibition at 20 µM was 51 to 75%.

For `O=C(Cn1c(=O)cnc2ccccc21)Nc1nc(-c2ccccn2)cs1` [drawing 2569], the inhibition at 20 µM was 51 to 75%.

With `O=C(Nc1nc(-c2ccccn2)cs1)c1ccc(F)cc1` [drawing 2579], the inhibition at 20 µM fell in the range of 51 to 75%.

With `COc1ccc(-c2csc3[nH]c(-c4ccccn4)nc(=O)c23)cc1` [drawing 2582], the inhibition at 20 µM was 51 to 75%.

With `CC(Oc1ccccc1Cl)C(=O)Nc1nnc(-c2ccccn2)[nH]1` (stereo not drawn) [drawing 2467], the inhibition at 20 µM fell in the range of 51 to 75%.

For `CC(OCC(F)(F)F)C(=O)Nc1nnc(-c2ccccn2)[nH]1` (stereo not drawn) [drawing 2479], the inhibition at 20 µM lay within 51 to 75%.

Take `Cc1ccc(CC(=O)Nc2nnc(-c3ccccn3)[nH]2)cc1` [drawing 2473]: the inhibition at 20 µM is 51 to 75%.

Take `CN(CC(=O)Nc1nnc(-c2ccccn2)[nH]1)S(=O)(=O)c1ccccc1` [drawing 2558]: the inhibition at 20 µM is 76 to 100%.

Take `O=C(Cc1ccc(F)cc1)Nc1nnc(-c2ccccn2)[nH]1` [drawing 2515]: the inhibition at 20 µM fell in the range of 51 to 75%.

`COc1ccccc1C1CC1C(=O)Nc1nnc(-c2ccccn2)[nH]1` (stereo not drawn) [drawing 2535]: the inhibition at 20 µM fell in the range of 51 to 75%.

In the case of `CC(C(=O)Nc1nnc(-c2ccccn2)[nH]1)n1cnc2ccccc21` (stereo not drawn), the inhibition at 20 µM was 51 to 75%.

Take `CCN(CC)S(=O)(=O)c1ccc(NCCOC)c(C(=O)NCCSCc2ccc(C)cc2)c1` [drawing 2633]: the inhibition at 20 µM was 25 to 50%.

With `O=C(Cc1ccc(-n2cnnn2)cc1)Nc1nnc(-c2ccccn2)[nH]1` [drawing 2452], the inhibition at 20 µM lay within 51 to 75%.

Take `O=C(COc1ccccc1)N1CCCc2c(O)nc(-c3ccccn3)nc21` [drawing 2638]: the inhibition at 20 µM is 76 to 100%.

Regarding `CC(C)NC(=O)Nc1cccc(C(=O)Nc2nnc(-c3ccccn3)[nH]2)c1` [drawing 2451], the inhibition at 20 µM was 51 to 75%.

As to `O=C(CC1CCCC1)NCC(=O)Nc1nnc(-c2ccccn2)[nH]1` [drawing 2500], the inhibition at 20 µM was in the range of 51 to 75%.
